Measured values taken from ChEMBL document CHEMBL1201862, “PubChem BioAssay data set” (2004).
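Assay format: 96-well plates, 48-hour exposure. GI50: concentration for 50% inhibition of growth.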 Active and inactive are the calls of the source. No stated cut-off is given here; in the data, active = GI50 up to about 1.1 µM and inactive = higher.

Key:
Assay in all cases: growth of human tumour cells (NCI), 48 h
DMS-114 = system: DMS-114
DMS-273 = system: DMS-273
M19-MEL = system: M19-MEL
RXF 631 = system: RXF 631
HOP-18 = system: HOP-18
LXFL 529 = system: LXFL 529
KM-20L2 = system: KM-20L2
XF498 = system: XF498
SNB-78 = system: SNB-78

Structure (SMILES)	GI50 (DMS-114)	GI50 (DMS-273)	GI50 (M19-MEL)	GI50 (RXF 631)	GI50 (HOP-18)	GI50 (LXFL 529)	GI50 (KM-20L2)	GI50 (XF498)	GI50 (SNB-78)
CCOC(=O)C12CC1(C(=O)OCC)C1CCC2C1 (configuration not stated)	74.3 µM (inactive)	> 100 µM (inactive)	> 100 µM (inactive)	> 100 µM (inactive)	> 100 µM (inactive)	> 100 µM (inactive)	–	–	–
CC(=O)OC(CCC1(C)OC1COc1ccc(CCNC(=O)C=C(C)C)cc1)C(C)(C)OC(C)=O (configuration not stated)	0.19 µM (active)	22.5 µM (inactive)	19.7 µM (inactive)	–	> 100 µM (inactive)	12.7 µM (inactive)	62.1 µM (inactive)	23.2 µM (inactive)	24.5 µM (inactive)
O/N=C1/C(=C/c2ccc(F)cc2)CCCC1C(NO)c1ccc(F)cc1 (configuration not stated)	29.9 µM (inactive)	40.6 µM (inactive)	38.3 µM (inactive)	33 µM (inactive)	21.1 µM (inactive)	38.4 µM (inactive)	28.8 µM (inactive)	64 µM (inactive)	67 µM (inactive)
O=P1(Oc2ccc(Cl)cc2Cl)Oc2ccc3ccccc3c2-c2c(ccc3ccccc23)O1	–	41.3 µM (inactive)	19.9 µM (inactive)	–	61.5 µM (inactive)	–	33.5 µM (inactive)	24.5 µM (inactive)	32.4 µM (inactive)
O=C1CCCn2c3ccccc3c3ccnc1c32	35 µM (inactive)	46.6 µM (inactive)	41.5 µM (inactive)	–	58.3 µM (inactive)	–	51.3 µM (inactive)	25.4 µM (inactive)	44.8 µM (inactive)
C/C(=C1/N=C(c2cc([N+](=O)[O-])ccc2Cl)N(C2=CC=C(Cl)CC2)C1=O)c1cc2ccccc2oc1=O	19.3 µM (inactive)	–	45.5 µM (inactive)	56 µM (inactive)	21.2 µM (inactive)	13.1 µM (inactive)	18.7 µM (inactive)	–	47.9 µM (inactive)
Cc1cc(O)nc(NN2C(Cl)C(=O)C2c2cccc(O)c2)n1 (configuration not stated)	5.11 µM (inactive)	3.13 µM (inactive)	6.19 µM (inactive)	–	2.39 µM (inactive)	5 µM (inactive)	10.3 µM (inactive)	–	7.43 µM (inactive)
O=[N+]([O-])c1cccc(C2=NOC3CCCC23)c1 (configuration not stated)	> 100 µM (inactive)	> 100 µM (inactive)	> 100 µM (inactive)	–	> 100 µM (inactive)	> 100 µM (inactive)	–	–	> 100 µM (inactive)
CC(=O)NC1COC(COC(=O)CCCCCCCCCCNC(=O)c2ccc([N+](=O)[O-])c3c(=O)c4ccccc4[nH]c23)C(O)C1OC(C)C(=O)NC(C(=O)NC(CCC(N)=O)C(=O)OCc1ccccc1)C(C)C (configuration not stated)	15.4 µM (inactive)	8.69 µM (inactive)	3.27 µM (inactive)	27.7 µM (inactive)	16.8 µM (inactive)	17.7 µM (inactive)	16.3 µM (inactive)	5.41 µM (inactive)	10.2 µM (inactive)
Nc1cc2c(cc1[N+](=O)[O-])[nH]c1c(-c3ccccc3)nccc12	12.7 µM (inactive)	18.1 µM (inactive)	17.7 µM (inactive)	–	8.41 µM (inactive)	–	23.6 µM (inactive)	40 µM (inactive)	11.2 µM (inactive)
O=c1c2ccccc2sc2nc(O)nn12	–	> 100 µM (inactive)	> 100 µM (inactive)	> 100 µM (inactive)	> 100 µM (inactive)	> 100 µM (inactive)	> 100 µM (inactive)	> 100 µM (inactive)	> 100 µM (inactive)
Cc1cccc(/N=C2\NC(=O)C(CC(=O)Nc3ccc(C)cc3C)S2)c1 (configuration not stated)	49.8 µM (inactive)	> 100 µM (inactive)	> 100 µM (inactive)	–	–	> 100 µM (inactive)	97.7 µM (inactive)	53.1 µM (inactive)	> 100 µM (inactive)
COC(=O)C1=C(C)N(NC(=O)c2ccccc2)C2(O)CCCC(=O)C12C (configuration not stated)	> 100 µM (inactive)	> 100 µM (inactive)	–	> 100 µM (inactive)	< 0.01 µM (active)	> 100 µM (inactive)	> 100 µM (inactive)	> 100 µM (inactive)	> 100 µM (inactive)
COc1ccc(/C(=N\NC(=O)NN)C(c2ccc(OC)cc2)C2(O)C(=O)Nc3c(Cl)cc(Cl)cc32)cc1 (configuration not stated)	90.8 µM (inactive)	–	> 100 µM (inactive)	> 100 µM (inactive)	> 100 µM (inactive)	> 100 µM (inactive)	> 100 µM (inactive)	> 100 µM (inactive)	> 100 µM (inactive)
CC(C)c1ccc(O)c(=O)cc1 [GAMMA-THUJAPLICIN]	2.92 µM (inactive)	3.89 µM (inactive)	6.46 µM (inactive)	–	5.62 µM (inactive)	5.53 µM (inactive)	3.99 µM (inactive)	15.1 µM (inactive)	20 µM (inactive)
Cc1cccc2c1C(=O)OC2(c1cccc2ccccc12)c1cccc2ccccc12	40.7 µM (inactive)	> 100 µM (inactive)	> 100 µM (inactive)	11.3 µM (inactive)	52.6 µM (inactive)	> 100 µM (inactive)	> 100 µM (inactive)	–	–
CCOC(=O)/C(=C/c1ccccn1)C(=O)c1ccccc1	14.3 µM (inactive)	12.1 µM (inactive)	13.5 µM (inactive)	13.6 µM (inactive)	18.3 µM (inactive)	11.1 µM (inactive)	15.5 µM (inactive)	16.1 µM (inactive)	17 µM (inactive)
C/C=C/CP(=O)(c1ccccc1)c1ccccc1	> 100 µM (inactive)	> 100 µM (inactive)	> 100 µM (inactive)	–	> 100 µM (inactive)	> 100 µM (inactive)	> 100 µM (inactive)	> 100 µM (inactive)	> 100 µM (inactive)
CC(=O)OCC1OC(Nc2nc(O)n(C)c(=O)c2-c2csc(N)n2)C(OC(C)=O)C(OC(C)=O)C1OC(C)=O (configuration not stated)	> 100 µM (inactive)	–	> 100 µM (inactive)	> 100 µM (inactive)	20 µM (inactive)	> 100 µM (inactive)	> 100 µM (inactive)	–	> 100 µM (inactive)
COc1ccc2[nH]c3c(C)c4cc[n+](C)cc4c(C)c3c2c1	0.412 µM (active)	1.09 µM (active)	0.944 µM (active)	–	3.59 µM (inactive)	–	3.17 µM (inactive)	–	0.571 µM (active)
COc1cccc2c1C(=O)c1c(O)c3c(c(O)c1C2=O)C[C@@](O)(C(=O)CO)CC3OC1CC(NCCCCC(OC(C)=O)OC(C)=O)C(O)C(C)O1 (some centres not stated)	0.00402 µM (active)	–	0.00345 µM (active)	0.00137 µM (active)	0.0033 µM (active)	0.00214 µM (active)	0.00242 µM (active)	–	0.00209 µM (active)
CC1=C2C(O)C(C(C)CO)C(O)CC2(C)C(O)CC1 (configuration not stated)	> 100 µM (inactive)	> 100 µM (inactive)	> 100 µM (inactive)	> 100 µM (inactive)	–	> 100 µM (inactive)	> 100 µM (inactive)	–	> 100 µM (inactive)
